Columns and labels:
[1] = system: MDA-MB-231 cells; assay: GRO-seq (global nuclear run-on), transcriptional response to JQ1; assay type: cell-based, Human; settings: 500 nM JQ1, 6 h vs 0.05% DMSO, FIG. 12K
Method: Cell culture. MDA-MB-231 breast cancer cells (HTB-26 ATCC) and MM.1S multiple myeloma cells were grown at 37° C. and 5% CO2. MDA-MB-231 cells were cultured in Dulbecco's Modified Eagle Medium (Thermo Fisher Sci.) supplemented with 10% fetal bovine serum. MM.1S cells were cultured in RPMI-1640 supplemented with 1% GlutaMAX (Thermo Fisher Sci.) and 10% fetal bovine serum. […] Drosophila S2 cells were cultured in Schneider's Drosophila Medium (Thermo Fisher Sci.) supplemented with 10% fetal bovine serum and 2 mM L-glutamine (Thermo Fisher Sci.), at ambient temperature in ambient CO2.
Functional perturbation of general enhancer activities. […] To quantify transcription activities in an unbiased manner, GRO-seq read densities were initially normalized using total uniquely-mapped read numbers to remove variations between libraries. To minimize the bias introduced by promoter pausing or gene length, only reads that were aligned within the 2 Kb region 1 Kb downstream from the TSS were selected to calculate the transcription activity. For multi-isoform genes, the transcript with highest read counts within the 2 Kb window was selected to represent the gene's transcription activity. Public datasets analyzed. The data of RNA Pol II ChIP-seq for MDA-MB-231 cells were obtained from European Genome-phenome Archive (www.ebi.ac.uk/ega). […]

[2] = system: MM.1S cells; settings: cited from earlier work

In the case of `Cc1sc2c(c1C)C(c1ccc(Cl)cc1)=N[C@@H](CC(=O)OC(C)(C)C)c1nnc(C)n1-2` [JQ1], the “transcriptional response to JQ1 (GRO-seq): genes associated with top 10% vs bottom 10% RNA-decorated enhancers” value [1] is given as “The same conclusions were reached”, the “response of gene expression to JQ1: genes associated with at least one super-enhancer vs only typical enhancers” value ([2]; GRID-seq inferred connectivity within 50 Kb range, same without range, FIG. 14E, F) is given as “more responsive” and the “response of gene expression to JQ1: genes associated with top 10% vs bottom 10% RNA-decorated enhancers” value ([2]; genes within ±50 Kb of enhancers, FIG. 13E) is given as “more responsive”.
